Results published in US20180094232A1, “Methods For The Cryopreservation Of Mammalian Cells” (The General Hospital Corporation, priority 2009, published 2018).
“Also recorded” adds a separate entry of the source. Read-outs that look alike come from different tables or passages of the source.

Columns and labels:
[1] = test system: mouse oocytes; experiment: Survival and morphology of mouse oocytes after vitrification in quartz capillaries; assay type: cell-based
Method: The 6-week-old B6D2F1 female mice were superovulated with 7.5 IU of pregnant mare serum gonadotrophin (Sigma-Aldrich, St. Louis, Mo., USA) and 7.5 IU of human chorionic gonadotrophin (Sigma-Aldrich) given by intraperitoneal injections 48 h apart. Fourteen hours after human chorionic gonadotrophin injection, females were anaesthetized with avertin (Sigma-Aldrich) then killed by cervical dislocation and their oviducts were removed. The cumulus-oocytecomplex was released from the ampullary region of each oviduct by puncturing the oviduct with a 27-gauge needle. Cumulus cells were removed by exposure to hyaluronidase (80 IU/ml) (Irvine Scientific, Santa Ana, Calif., USA) for 3 min and washed three times with human tubal fluid (HTF) medium (Irvine Scientific) with 10% fetal bovine serum (FBS; Gibco, Carlsbad, Calif., USA). Oocytes were transferred and cultured in HTF medium (Quinn et al., 1995) containing 10% FBS at 37° C. and 5% CO2 in air until they were vitrified.
All cryoprotectant solutions were filter-sterilized and stored at 4° C. prior to use. The base cryoprotectant solutions used were PrOH (Sigma-Aldrich) and trehalose (Ferro Pfanstiehl Laboratory, Waukegan, Ill., USA). The concentrations and types of cryoprotectants used were similar to those used in traditional slow-freezing protocols for human oocytes (Gook and Edgar, 2007) and are not typically vitrifiable. For vitrification, isolated mature oocytes were placed into HTF medium supplemented with 10% FBS. Two vitrification protocols using a HEPES-buffered physiological salt solution (FHM; Specialty Media, Lavallette, N.J., USA) (Lawitts and Biggers, 1993) as a base medium were tested. In the first protocol, the oocytes were equilibrated in a 30 μl droplet of 0.75 mol/l PrOH in FHM20 (FHM medium containing 20% FBS) for 5 min, then transferred to a 30 μl droplet of 0.5 mol/l trehalose+1.5 mol/l PrOH in FHM20 for 5 min.
In the second protocol, oocytes were equilibrated in a 30 μl droplet of 0.75 mol/l PrOH in FHM20 for 5 min, then equilibrated in a 30 μl droplet of 1.5 mol/l PrOH in FHM20 for 5 min before being transferred to a 0.5 mol/l trehalose 2.0 mol/l PrOH in FHM20, for 5 min. The QC straws (The Charles Supper Company, USA) used for vitrification have an outer and inner diameter of approximately 0.2 and 0.18 mm, respectively, and a wall thickness of 0.01 mm (He et al., 2008). After exposure to the vitrification solution, the oocytes were then loaded into the 200 μm QC and plunged into liquid or slush nitrogen for comparison. For warming, the vitrified oocytes were immediately immersed in a holding medium containing 0.2 mol/l trehalose in […]phosphate-buffered saline (PBS; Gibco) at 37° C. for 1 minute. […]

[2] = Critical cooling rate to achieve vitrification (Vcc) from Boutron's semi-empirical theory and DSC K4; assay type: physicochemical
From the text: The critical cooling rate to achieve vitrification (Vcc) is a function of the concentration of cryoprotectant. It has been extensively studied in the case of 1,2-propanediol and other alcohols with relevance in cryobiology, although mainly in the range of cooling rates achievable by differential scanning calorimetry (DSC) techniques. However, it is possible to obtain estimates of the critical cooling rates at other […]. The presence of sugars in equimolar concentrations has shown to have no effect on Vcc in the case of monosaccharides and little effect in the case of sucrose for the concentration used in these studies (0.3 M)(Kuleshova et al., Cryobiology 38: 199-130, 1999). The Vcc can be inferred from Boutron's semi-empirical theory of glass forming tendency (Boutron, Cryobiology 23:88-102, 1986); it is given by:
To is the initial temperature of crystallization and xg is the amount of ice formed at the critical cooling rate. Many studies in the literature consider a solution to be vitrified when xg≦10^−6 (Liu and McGrath, Proc. 2005 IEEE Eng. Med. Biol. 27th Ann. Conference, p. 7501-7504, 2005). K4 is a constant dependent of the solution and can be determined by DSC. Although there is not data for K4 in the available literature for our solution, some estimation can be done. The values of K4 for 40%, 37.5% and 35% (w/w) of aqueous solutions of 1,2 propanediol are 24.1° C./min, 54.1° C./min and 151° C./min (Ren et al., Cryobiology 31:47-56, 1994). These values of K4 give rise to Vcc values of 8.0×10^2° C./min, 1.8×10^3° C./min and 5.0×10^3° C./min, respectively. So, a tentative value of […] for 1.8 M of 1,2-propanediol is 10^4° C./min. […] The exponential fitting of the data is justified by the theory (Ren et al., supra).

[3] = test system: primary rat hepatocytes; experiment: Hepatocyte viability post-cryopreservation in QMC, exclusion of trypan blue; assay type: cell-based; conditions: 1.5 M PROH, 0.3 M sucrose, or both, immediately post-cryopreservation
Method: The vitrification technique was also tested using primary liver cells (hepatocytes) due to their sensitivity to stress, and importance in liver tissue engineering and availability. The cell viability of hepatocytes was determined immediately post-cryopreservation in quartz micro-capillaries (QMC) in the presence of either no CPA; 0.3 M sucrose; 1.5 M 1,2-propanediol (PROH); 1.5 M PROH and 0.3 M sucrose; or 2.0 M PROH and […]. The number of viable cells was determined in both vitrified samples as well as non-vitrified controls (i.e., no freezing). Cell viability was quantified by the exclusion of trypan blue. […] There was only ˜35% survival for cells loaded with 1.5 M PROH prior to cryopreservation. Sucrose (0.3 M) was then added to the cryopreservation solution with 1.5-2 M PROH. […] When 0.3 M sucrose was added to the cryopreservation solution, the immediate viability jumped to ˜75%.

[4] = Vitrification of CPA laden solutions: opacity after plunging the device into liquid nitrogen; assay type: physicochemical
From the text: One convenient way for determining non-vitrification is the appearance of opacity as a result of ice formation when freezing solutions in a straw. If there is no visible opacity, it is called apparent vitrification. Although opacity could be easily identified in the traditional plastic straw using the naked eye, it is very difficult to do so for the quartz micro-capillary due to its small dimension. Therefore, an experimental setup shown in FIG. 10 was designed for visualization of opacity during cooling by directing two focused lights on the capillary held against a dark background for all the devices shown in FIG. 1 except the stainless steel micro-capillary. […] This setup was used to determine the threshold (minimum) CPA concentration required to completely avoid opacity during cooling. […] Various total CPA concentrations from 12% to 30% by volume with 2% increments were studied using both the open pulled straw and the thin walled quartz micro-capillary. Since 0.2-1 M sucrose or trehalose has been used in essentially all studies for cryopreservation of mammalian oocytes by both slow freezing and vitrification, further studies were also performed using the quartz micro-capillary for solutions with 0.5 M sucrose or trehalose plus 1.5 M, 2.0 M, and 2.5 M PROH, respectively. The solutions can be loaded into the open pulled straw and quartz micro-capillaries by capillary action while it can be expelled out of the capillaries by using a micro-syringe attached with a soft PEP polymer needle tip to push from the end of the capillaries with a bigger opening.

[5] = cited from earlier work
[6] = test system: murine embryonic stem (ES) cells; experiment: Attachment efficiency of ES cells post vitrification; assay type: cell-based; conditions: 0.5 M trehalose, 2 M PROH, alone or combined; QMC, liquid nitrogen; day 1
Method: On the day of experiment, the attached cells were lightly trypsinized for 3-5 minutes and collected. The cells were pelleted at 100×g for 5 minutes and resuspended in cold stem cell media supplemented with 1.5 M 1,2-propanediol (Sigma, St Louis, Mo.) and incubated on ice for 10 minutes. The cells were then spun down at 100×g for 3-5 minutes and resuspended in 1 ml first vitrification solution for 10 minutes. The cells were then spun down at 100×g for 3-5 minutes and resuspended in the second solution at 10×10^6/ml for another 10 minutes. The first vitrification solution was made of ES cell maintenance medium supplemented with 1.5 M 1,2-propanediol, while the second solution was supplemented with 2 M 1,2-propanediol and 0.5 M trehalose (Ferro Pfanstiehl Laboratories, Inc., Waukegan, Ill.). Cells were also cryopreserved using either 0.5 M trehalose or 2 M 1,2-propanediol only for comparison. […]
Cell attachment and growth was determined by counting the number of cells per field under a 10× objective. […] The attachment efficiency was calculated as the ratio of the total number of cells per field of a cryopreserved sample to that of the control non-frozen sample at day 1. To assess the proliferation of the attached cells, the total number of cells per field was further monitored for 4 days.

[7] = both open pulled straw and quartz micro-capillary

With `CC(O)CO` (stereo not drawn) [1,2-Propanediol (PROH), 1,2-propanediol] the Surviving oocytes ([1]; liquid nitrogen, 1.5 mol/l PrOH + 0.5 mol/l trehalose in FHM20, QC) was 18/40 (45.0) %, the Surviving oocytes ([1]; liquid nitrogen, 2.0 mol/l PrOH + 0.5 mol/l trehalose in FHM20, QC) was 19/40 (47.5) % and the Surviving oocytes ([1]; slush nitrogen, 1.5 mol/l PrOH + 0.5 mol/l trehalose in FHM20, QC) was 36/40 (90.0) %. For the same compound, the Surviving oocytes ([1]; slush nitrogen, 2.0 mol/l PrOH + 0.5 mol/l trehalose in FHM20, QC) was 28/40 (70.0) %, the “K4, tentative value” ([2]; 1.8 M) was ~10^4 ° C./min and the “critical cooling rate to achieve vitrification (Vcc)” value (“critical cooling rate” below) ([2]; 35% (w/w) aqueous solution) was 5.0×10^3 ° C./min. The “critical cooling rate” value ([2]; 37.5% (w/w) aqueous solution) was 1.8×10^3 ° C./min, the “critical cooling rate” value ([2]; 40% (w/w) aqueous solution) was 8.0×10^2 ° C./min and the “cell survival, immediate viability” value [3] was roughly 35%. The “appearance of the loaded quartz micro-capillary after plunging into liquid nitrogen” value ([4]; 1 M (7% v) 1,2-propanediol in FHM) was “opaque; also recorded: whitish appearance”, the “appearance of the loaded quartz micro-capillary after plunging into liquid nitrogen” value ([4]; 2 M (14% v) 1,2-propanediol in FHM) was “clear appearance” and the “threshold concentration lower than that of ethylene glycol (EG)” value [4, 7] was roughly 5 % v. For the same compound, the “threshold concentration lower than that of the combination of EG and PROH in a 1:1 ratio” value [4, 7] was 2.5 % v, the “threshold concentration for the complete absence of opacity” value ([4]; micro-capillary, liquid nitrogen) was roughly 2 M and the K4 ([5]; 35% (w/w) aqueous solution) was 151 ° C./min. The K4 ([5]; 37.5% (w/w) aqueous solution) was 54.1 ° C./min, the K4 ([5]; 40% (w/w) aqueous solution) was 24.1 ° C./min and the “attachment efficiency (normalized to control)” value [6] was “minimum amount of cells can attach”.

In the case of `OCCO` [Ethylene glycol (EG), ethylene glycol], the “threshold concentration for the complete absence of opacity” value [4] is reported as roughly 4 M.

With `OC[C@H]1O[C@@](CO)(O[C@H]2O[C@H](CO)[C@@H](O)[C@H](O)[C@H]2O)[C@@H](O)[C@@H]1O` [sucrose] the “cell survival, immediate viability” value [3] was “less than 10%”.

In the case of `OC[C@H]1O[C@H](O[C@H]2O[C@H](CO)[C@@H](O)[C@H](O)[C@H]2O)[C@H](O)[C@@H](O)[C@@H]1O` [trehalose], the “attachment efficiency (normalized to control)” value [6] is reported as “minimum amount of cells can attach”.
